Results from PubChem BioAssay AID1963835 (Molecular Pharmacology Branch, DTP, NCI, 2024).

Tested on: 699152-130-R-J1-PDC complex spheroid viability
Experiment: Anticancer human tumor 699152-130-R-J1-PDC patient-derived pancreatic carcinoma cell line growth inhibition [POLQ]
Conditions: for IC50: curve of first compound; for viability, T/C: stronger effect = lower value
Procedure: Multicellular complex tumor spheroid response to Polymerase (POL) inhibitors (novobiocin, ART-558, RP6685) in combination with a variety of drugs and investigational agents in selected tumor cell lines
The POL inhibitors (novobiocin, ART-558, and RP6685) were evaluated both individually and in combination with standard of care and investigational anticancer small molecules within a complex spheroid model of solid tumors. . Complex spheroids include a stromal component modeled by human endothelial cells (HUVEC) and fibroblasts modeled by human mesenchymal stem cells (MSCs). The concentration ranges selected for each drug and investigational agent were based upon clinically achievable concentrations if the clinical Cmax of the agent was known.
Compounds. The drugs and investigational agents: novobiocin (NSC847541), ART-558 (NSC835418), RP-6685 (NSC848927), peposertib (NSC802822), ceralasertib (NSC780249), elimusertib (NSC800525), camonsertib (NSC841442), AZD-1390 (NSC803789), olaparib (NSC753686), talazoparib (NSC767125), rucaparib (NSC756644), sotorasib (NSC818433), MRTX-1133 (NSC836407), SN-38 (NSC673596), topotecan (NSC609699), epotoside (NSC141540), doxorubicin (NSC123127), gemcitabine (NSC613327), 5-fluorouracil (NSC19893), paclitaxel (NSC125973), vemurafenib (NSC761431), MSA-2 (NSC828583), SN-011 (NSC837082), adavosertib (NSC754352), prexasertib (NSC758257), carboplatin (NSC241240) and oxaliplatin (NSC266046), were obtained from the National Cancer Institute (NCI) Developmental Therapeutics Program Chemical Repository (21). The FDA-approved anticancer drug set is available from the Developmental Therapeutics Program at https://dtp.cancer.gov/organization/dscb/obtaining/. […] The stock solutions were prepared in dimethyl sulfoxide (DMSO, Sigma-Aldrich, St. Louis, MO, cat. D2650), except for the platinum compounds which were prepared in saline (Quality Biological, Gaithersburg, MD, cat. 114-055-101), at 800-fold the tested concentration and stored at -70 degrees C prior to their use. All drugs and investigational agents were tested over a range starting from a high concentration at or near the clinical Cmax and decreasing in half-log increments. If the clinical Cmax for an agent had not been determined, the highest concentration tested was 10 microM, except for SN-38, which was tested at a high concentration of 1 microM.
Cell Culture. All cells were maintained in an incubator at 37 degrees C and 5% CO2 with 95% humidity. The PDC lines were cultured according to standard operating procedures established by the NCI PDMR (https://pdmr.cancer.gov). Table 3 of the manuscript, lists the cell lines along with the number of the three cell types plated to form the mct-spheroids and media for tumor cell growth. After thawing, all PDC lines, except 997537-175-T-J1-PDC and 415267-285-R-J2-PDC, were cultured in Matrigel-coated flasks prepared with a working solution of 1X Ham's F-12 nutrient mix, without supplementation (Thermo Fisher Scientific, cat. 11765054), 100 U/mL penicillin-streptomycin (Thermo Fisher Scientific, cat. 15140122), and 2.5% Matrigel (Corning Inc., Corning, NY, cat. 354248) for the first three passages. The two PDC lines 997537-175-T-J1-PDC and 415267-285-R-J2-PDC were cultured on uncoated flasks. The 857933-349-R-J2-PDC line was cultured in 6C/Colon 1B media containing advanced DMEM/F-12 (Thermo Fisher Scientific, cat. 12634028), 10 mM HEPES (Thermo Fisher Scientific, cat. 15630080), 1X GlutaMAX supplement (Thermo Fisher Scientific, cat. 35050061), 0.1 mg/mL primocin (InvivoGen, San Diego, CA, cat. ant-pm-2), 10% defined fetal bovine serum, heat inactivated (HyClone Laboratories Inc., Logan, UT, cat. SH30070.03HI), 50% L-WRN conditioned media (ATCC, cat. CRL-3276), 1.25 mM N-Acetyl-L-cysteine (Sigma-Aldrich, cat. A9165), 10 mM nicotinamide (Sigma-Aldrich, cat. N0636), 1X B-27 supplement (Thermo Fisher Scientific, cat. 17504044), 1X N-2 supplement (Thermo Fisher Scientific, cat. […]
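Further: spheroids exposed to agents for 7 days before viability reading.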
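Wherever viability, T/C is given: percent of DMSO vehicle control viability so 100% = vehicle and 0% = no viable signal.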

Q: What does the source list for COc1cc(C2c3cc4c(cc3C(OC3OC5COC(C)OC5C(O)C3O)C3COC(=O)C23)OCO4)cc(OC)c1O (configuration not stated) + COC1C(OC(N)=O)C(O)C(Oc2ccc3c(O)c(NC(=O)c4ccc(O)c(CC=C(C)C)c4)c(=O)oc3c2C)OC1(C)C?
A: IC50 (second compound 0.0316 µM): 4.01 µM; IC50 (second compound 0.1 µM): 3.17 µM; IC50 (second compound 0.316 µM): 4.05 µM; IC50 (second compound 1 µM): 2.51 µM; IC50 (second compound 3.16 µM): 4.61 µM; IC50 (second compound 10 µM): 3.04 µM; viability, T/C (second compound 0.0316 µM, first compound 0.0316 µM): 92.1%; viability, T/C (second compound 0.0316 µM, first compound 0.1 µM): 99.5%; viability, T/C (second compound 0.0316 µM, first compound 0.316 µM): 66.4%; viability, T/C (second compound 0.0316 µM, first compound 1 µM): 72.5%; viability, T/C (second compound 0.0316 µM, first compound 3.16 µM): 51.3%; viability, T/C (second compound 0.0316 µM, first compound 10 µM): 40.2%; viability, T/C (second compound 0.1 µM, first compound 0.0316 µM): 83.9%; viability, T/C (second compound 0.1 µM, first compound 0.1 µM): 94%; viability, T/C (second compound 0.1 µM, first compound 0.316 µM): 71.1%; viability, T/C (second compound 0.1 µM, first compound 1 µM): 61.1%; viability, T/C (second compound 0.1 µM, first compound 3.16 µM): 54.3%; viability, T/C (second compound 0.1 µM, first compound 10 µM): 38.2%; viability, T/C (second compound 0.316 µM, first compound 0.0316 µM): 99.5%; viability, T/C (second compound 0.316 µM, first compound 0.1 µM): 80.4%; viability, T/C (second compound 0.316 µM, first compound 0.316 µM): 74.4%; viability, T/C (second compound 0.316 µM, first compound 1 µM): 70.8%; viability, T/C (second compound 0.316 µM, first compound 3.16 µM): 46.8%; viability, T/C (second compound 0.316 µM, first compound 10 µM): 42.7%; viability, T/C (second compound 1 µM, first compound 0.0316 µM): 94.5%; viability, T/C (second compound 1 µM, first compound 0.1 µM): 87.8%; viability, T/C (second compound 1 µM, first compound 0.316 µM): 75%; viability, T/C (second compound 1 µM, first compound 1 µM): 60.4%; viability, T/C (second compound 1 µM, first compound 3.16 µM): 47.7%; viability, T/C (second compound 1 µM, first compound 10 µM): 38.4%; viability, T/C (second compound 3.16 µM, first compound 0.0316 µM): 93%; viability, T/C (second compound 3.16 µM, first compound 0.1 µM): 86.2%; viability, T/C (second compound 3.16 µM, first compound 0.316 µM): 75.3%; viability, T/C (second compound 3.16 µM, first compound 1 µM): 66.7%; viability, T/C (second compound 3.16 µM, first compound 3.16 µM): 49.7%; viability, T/C (second compound 3.16 µM, first compound 10 µM): 46%; viability, T/C (second compound 10 µM, first compound 0.0316 µM): 87.3%; viability, T/C (second compound 10 µM, first compound 0.1 µM): 85.6%; viability, T/C (second compound 10 µM, first compound 0.316 µM): 78.5%; viability, T/C (second compound 10 µM, first compound 1 µM): 62.6%; viability, T/C (second compound 10 µM, first compound 3.16 µM): 50.8%; viability, T/C (second compound 10 µM, first compound 10 µM): 40.6%
